Data as given in patent US20070082942A1, “Prevention of hiv-1 infection by inhibition of rho-mediated reorganization and/or content alteration of cell membrane raft” (priority 2003, published 2007).

Columns and labels:
[1] = system: replication-defective NL4-3 virus pseudotyped with HIV-1ADA envelope; type: cell-based; settings: for Entry of R5-pseudotyped virus: MT2-CCR5 cells treated with 10 μM compound, 48 h, FIG. 6A, 7B
Rho = Rho activation assay; type: cell-based; settings: FIG. 8C
Method: Rho and Rac activation assay. […] At times indicated, cells were washed with ice-cold PBS and lysates prepared using Rho or Rac activation assay kits (Upstate Biotechnology). GTP-bound Rho was precipitated with RBD-agarose beads and GTP-Rac with PBD-agarose beads. Activated Rho or Rac were measured in pellets by Western blot with specific antibodies, using crude cell extracts for normalization. Densitometry was performed using NIH Image software.

[2] = system: HIV-1 LTR-driven promoter; test: LTR-driven gene expression; settings: for Reversal of lovastatin-induced increase in LTR-driven transcription: supplementation with lovastatin
Method: LTR-driven gene expression. Jurkat cells transfected with pLTR-luc (Schwartz, O. et al (1990) Gene 88:197-205), pcDNA-tat and the promoterless renilla luciferase plasmid were treated at 4 h post-transfection with inhibitors and metabolites at the indicated concentrations (see HIV-1. infections section). Relative luciferase units (RLU) were calculated as the ratio between firefly and renilla activity after 48 h.

[3] = system: gp120 with the HIV-1 receptors CD4 and CXCR4; test: gp120-induced patching; settings: for Restoration of patch size and gp120-CXCR4 co-localization in lovastatin-treated cells: addition to lovastatin-treated cells
X4 (NL4-3) HIV-1 strain = test: HIV-1 infection of PHA-activated human PBMC, p24 antigen, X4 strain; type: cell-based
Method: (§1) Treated PBMC were incubated with NL4-3 or BaL viral stocks (1 or 10 ng p24 antigen/10^6 cells; 3 h, 37° C.). Cell-free supernatants were collected daily from cultured cells (0.5×10^6/ml) and tested for p24 antigen (Coulter).

[4] = system: HIV-1-pseudotyped virus produced by HEK 293T cells; type: cell-based
R5 (BaL) HIV-1 strain = test: HIV-1 infection of PHA-activated human PBMC, p24 antigen, R5 strain; type: cell-based
Method: as §1

[5] = system: replication-defective NL4-3 virus pseudotyped with VSV envelope; type: cell-based, vesicular stomatitis virus
Gag = settings: cells expressing the peptide
Luc-Ada viral particles = test: Production of Luc-Ada viral particles in cells expressing raft-targeted protease peptide; settings: cells expressing the peptide; FIG. 8B as printed
MT2-CCR5 cells = test: Cell cholesterol mass determination; settings: lovastatin-treated MT2-CCR5 cells; FIG. 7C
HIV-1 NL4-3 = test: Murine SCID-hu-PBMC model of HIV-1 infection; type: in vivo, CB.17 SCID/SCID mice
grafted human PBMC = settings: mouse, in vivo
HIV-1 = test: Lovastatin treatment of HIV-1-infected patients; type: in vivo, human; settings: Table I
[6] = system: X4-pseudotyped replication-defective HIV-1 NL4-3 variant; type: cell-based; settings: 10 μM lovastatin; not shown
[7] = system: VSV-G-pseudotyped virus produced by HEK 293T cells; type: cell-based, vesicular stomatitis virus
[8] = lovastatin-treated PBMC, FIG. 8A

CC(C)=CCC/C(C)=C/CC/C(C)=C/CC/C(C)=C/COP(=O)(O)OP(=O)(O)O [GGPP, geranylgeranylpyrophosphate]
Reversal of lovastatin-induced inhibition of HIV-1 entry [1]: reversed | Reversal of lovastatin inhibition of HIV-1-induced Rho activation (Rho; co-incubation with lovastatin): reversed | Reversal of lovastatin-induced increase in LTR-driven transcription ([2]; MT2-CCR5 cells, FIG. 7D): reversed

CC(C)CCC[C@@H](C)[C@H]1CC[C@H]2[C@@H]3CC=C4C[C@@H](O)CC[C@]4(C)[C@H]3CC[C@]12C [cholesterol]
Reversal of lovastatin-induced inhibition of HIV-1 entry [1]: not | Reversal of lovastatin-induced increase in LTR-driven transcription ([2]; MT2-CCR5 cells, FIG. 7D): not | Restoration of patch size and gp120-CXCR4 co-localization in lovastatin-treated cells ([3]; FIG. 8A): not

L-mevalonate
Reversal of lovastatin effect on p24 production (X4 (NL4-3) HIV-1 strain; co-incubation with lovastatin, X4-infected cultures): reversed | Reversal of lovastatin-induced inhibition of HIV-1 entry [1]: reversed | Reversal of lovastatin-induced reduction of viral production ([4]; co-incubation with lovastatin, FIG. 6B): reversed | Reversal of lovastatin-induced increase in LTR-driven promoter activity ([2]; Jurkat cells, co-incubation with lovastatin, FIG. 6C): reversed | Restoration of patch size and gp120-CXCR4 co-localization in lovastatin-treated cells ([3]; FIG. 8A): restored | Reversal of lovastatin effect on p24 production (R5 (BaL) HIV-1 strain; co-incubation with lovastatin, R5-infected cultures): reversed

CC(C)=CCC/C(C)=C/CC/C(C)=C/COP(=O)(O)OP(=O)(O)O [FPP, famesylpyrophosphate]
Reversal of lovastatin-induced inhibition of HIV-1 entry [1]: not | Reversal of lovastatin-induced increase in LTR-driven transcription ([2]; MT2-CCR5 cells, FIG. 7D): not

COC(=O)[C@H](CC(C)C)NC(=O)c1ccc(NC[C@@H](N)CS)cc1-c1ccccc1 [geranylgeranyl transferase inhibitor]
Entry of VSV-pseudotyped virus [5]: did not affect | Entry of R5-pseudotyped virus [1]: inhibited | HIV transcription (LTR-driven) ([2]; MT2-CCR5 cells, FIG. 7D): increased

COC(=O)[C@H](CCSC)NC(=O)c1ccc(NC[C@@H](N)CS)cc1-c1ccccc1 [farnesyl transferase inhibitor]
Entry of VSV-pseudotyped virus [5]: did not affect | Entry of R5-pseudotyped virus [1]: not

MGCGCSSHPEDDISYEL [SEQ. ID. NO: 21]
Gag processing (Gag): severely attenuated | Production of Luc-Ada viral particles (Luc-Ada viral particles): severely diminished

CC[C@H](C)C(=O)O[C@H]1C[C@@H](C)C=C2C=C[C@H](C)[C@H](CC[C@@H]3C[C@@H](O)CC(=O)O3)[C@H]21 [lovastatin]
Cholesteryl ester mass (MT2-CCR5 cells): drastically reduced | Free cholesterol levels vs untreated cells (MT2-CCR5 cells): comparable | HIV-1 replication (p24 antigen production) (X4 (NL4-3) HIV-1 strain; PBMC pretreated 48 h with 10 μM lovastatin, X4 (NL4-3)-infected cultures, FIG. 5A): reduced p24 antigen production | Virus rescue by co-culture of peritoneal cells with PHA-activated human PBMC (HIV-1 NL4-3; cells from two mice with undetectable viral RNA): did not rescue virus | Mice with undetectable viral RNA in plasma (HIV-1 NL4-3; lovastatin i.p. 5 mg/kg every three days): 4 of 10 | Mean viral load (plasma HIV-1 RNA) (HIV-1 NL4-3; lovastatin i.p. 5 mg/kg every three days, one week post-infection, vs vehicle, FIG. 5C): significantly reduced | CD4+ T cell counts vs controls (HIV-1 NL4-3; one week post-infection): higher | Number of labeled cells or labeling intensity (grafted human PBMC): No difference | Serum viral RNA loads (HIV-1; six A1 stage non-HAART patients, 40 mg/day oral, one month, sole therapy): clear reduction | Viral load after discontinuation of treatment (HIV-1; three months after termination of treatment): rebound | Entry of R5-pseudotyped virus [1]: inhibited entry | Entry of X4-pseudotyped virus [6]: inhibited entry | VSV-G-pseudotyped viral production [7]: not that of VSV-G-pseudotyped viruses | HIV-1-pseudotyped viral production [4]: reduced | HIV-1-induced Rho activation (Rho; MT2-CCR5 cells incubated with lovastatin prior to virus exposure): inhibited | HIV-1 LTR-driven promoter activity ([2]; Jurkat cells, FIG. 6C): increased | gp120 binding to CD4 ([3]; lovastatin-treated PBMC): did not affect | Co-localization between gp120 and CXCR4 [3, 8]: drastically reduced | gp120 patch size vs untreated cells [3, 8]: smaller gp120 patches | HIV-1 replication (p24 antigen production) (R5 (BaL) HIV-1 strain; PBMC pretreated 48 h with 10 μM lovastatin, R5 (BaL)-infected cultures, FIG. 5A): reduced p24 antigen production
